According to patent publication US20050202032A1, “Use of neglected target tissue antigens in modulation of immune responses” (The Regents of the University of California, priority 1998, published 2005):

B1: GAD: Mouse GAD65, glutamic acid decarboxylase, β cell autoantigen (protein, UniProt P48320 1-585, looked up)
Glutamate decarboxylase 2: MASPGSGFWSFGSEDGSADPENPGTARAWCQVAQKFTGGIGNKLCALLYGDSGKPAEGGGSVTSRAATGKVACTCDQKPCNCPKGDVNYAFLHATDLLPACDGERPTLAFLQDVMNILLQYVVKSFDRSTKVIDFHYPNELLQEYNWELADQPQNLEEILTHCQTTLKYAIKTGHPRYFNQLSTGLDMVGLAADWLTSTANTNMFTYEIAPVFVLLEYVTLKKMREIIGWPGGSGDGIFSPGGAISNMYAMLIARYKMFPEVKEKGMAAVPRLIAFTSEHSHFSLKKGAAALGIGTDSVILIKCDERGKMIPSDLERRILEVKQKGFVPFLVSATAGTTVYGAFDPLLAVADICKKYKIWMHVDAAWGGGLLMSRKHKWKLSGVERANSVTWNPHKMMGVPLQCSALLVREEGLMQSCNQMHASYLFQQDKHYDLSYDTGDKALQCGRHVDVFKLWLMWRAKGTTGFEAHIDKCLELAEYLYTIIKNREGYEMVFDGKPQHTNVCFWFVPPSLRTLEDNEERMSRLSKVAPVIKARMMEYGTTMVSYQPLGDKVNFFRMVISNPAATHQDIDFLIEEIERLGQDL

What was measured:
[1] = system: splenic T cells of NOD mice; assay: T cell proliferation: immunogenicity and spontaneous recall responses to candidate NTTA peptides (Example 4); type: cell-based; settings: at any stage of NOD mouse development, no immunization
[2] = system: splenic T cells of NOD mice; assay: as above; type: cell-based; settings: peptide used as the immunizant; FIG. 4
Procedure: T-cell proliferation assays. Female NOD mice were injected i.p. at 8 weeks of age with 100 μg antigen, or control β-galactosidase, in 100 μl of 50% IFA. The mice were reinjected 2 weeks later. At 12 weeks of age, splenic T-cells were tested for proliferative responses to GAD65, hsp277, β-galactosidase and the HEL peptide, as previously described.
Transgenic animal models have shown that neoantigens which are expressed at low levels in peripheral tissues often have little impact on T cell education and elicit strong immune responses after immunization (4-8). Identifying NTTAs that were specifically expressed in the β cells at low levels was therefore preferred. The DNA sequence banks were screened for cDNA sequences isolated from mouse β cell subtraction libraries. Mouse cDNA sequences were selected from both known and unknown β cell cDNAs and from both β-cell specific and ubiquitous antigens, some of which appeared to be expressed only at low levels specifically in β cells. Other cDNAs that were expressed at higher levels in the β cells, or in other tissues were selected by Northern analysis for comparison purposes. From the open reading frames of the candidate cDNAs we synthesized a dozen peptides which contained a consensus NOD class II MHC binding motif (54, 55). We identified 4 peptides (sequences provided above) from 3 different mouse B cell proteins that were immunogenic in NOD mice (FIG. 4).
The remaining peptides tested were peptide 1, a 15mer from calbindin having the sequence EEFMKTWRKYDTDHS; • peptide 3, also a 15mer from calbindin having the sequence LKDLCEKNKQELDIN; • peptide 5, a 15mer from clone 38 in turn derived from a beta cell specific cDNA library (Neophytou, P. et al Diabetes, 45:127, 1996) having the sequence ILKMDHHCPWVNNCV; and • peptide 8 from islet amyloid polypeptide having the sequence GKRNAAGDPNRESLDFL.
In addition, using a set of overlapping GAD peptides, two GAD peptides have been identified which are immunogenic in NOD mice (GADp18 and GADp27; sequences provided under ANTIGENS, above) but which are ignored by their spontaneous autoimmune responses (data not shown). […] These conclusions can be used to advantage for the development of human NTTAs as immunotherapeutics for autoimmune disease, and other abnormal inflammatory immune responses.

[3] = system: splenic T cells of treated NOD mice; assay: ELISPOT of Th1/Th2 responses after neonatal autoantigen treatment (Example 8); type: cell-based; settings: treated neonatally 100 μg i.p. in IFA, tested at 4 weeks in age; FIG. 10
Procedure: (§1) ELISPOT analysis. At a specified time, mice received a single i.p. injection of 100 μg β-galactosidase or GAD65 or other specified antigen in 50% IFA. Fourteen days later, splenic T-cells were isolated and the frequency of β-galactosidase and GAD65-specific T-cells secreting IL-4, IL-5 and IFN-γ was determined by using the ELISPOT technique as described (Forsthuber, T., et al., Science, 271:1728, 1996), with the exception that the treating antigen and β-galactosidase (100 μg/ml) were used as antigens, and 11B11 together with biotinylated BVD6-24G2 (PharMingen, San Diego, Calif.) was used for capture and detection of IL-4. The resulting spots were counted manually.
The data are represented as the mean number of spot forming colonies per million splenic T cells above background. The variation within, each group was <15%. Experimental and control mice were tested simultaneously (in triplicate) in two separate experiments (n=5/group).

[4] = system: NOD mice; settings: intraperitoneally in incomplete Freund's adjuvant early in the NOD mouse disease process (ref 1); cited from earlier work
[5] = system: antigen-specific T cells within islet infiltrates; assay: ELISPOT of single antigen-specific T cells from pancreatic islet infiltrates (Example 11); type: cell-based, NOD mice
Procedure: as §1
Monocytes were isolated from islets of 10-week old female NOD mice. 1000, 100 or 10 monocytes were mixed with 1 million irradiated splenic T cells and tested for IFNγ and IL-5 responses to B cell autoantigens, as well as control antigens, by ELISPOT.

[6] = system: diabetic NOD mice with transplanted syngeneic islets; assay: Transplantation of syngeneic islets into diabetic NOD mice (Example 2); type: in vivo; settings: antigen i.p. in IFA to recipient diabetic NOD mice prior to transplantation; FIG. 1
Procedure: Transplantation of islets. Female NOD mice were monitored for the onset of IDDM, after which the mice were maintained on 1.0 to 1.5 units insulin (Humulin U, Lilly) per day. At the time of IDDM onset, mice were injected with either 100 μg of GAD65, hsp277, insulin B-chain or control β-galactosidase i.p. in 50% IFA. Ten days later, the mice were reinjected. Ten days after the second treatment, 3000 freshly isolated islets from newborn NOD mice were transplanted into the space beneath the kidney capsule, and Humulin administration was discontinued. The mice were reinjected every two weeks. Recurrence of diabetes is defined as two consecutive blood glucose levels of greater than 13 mmol/l.
Based on the ability of autoantigen treatment to inhibit disease in pre-diabetic NOD mice with (1) we tested whether this treatment could also protect transplanted syngeneic β cells from the established autoimmune responses in diabetic NOD mice. Islets were transplanted into diabetic NOD mice that had been treated with β-galactosidase. […] The results are shown in FIG. 1, wherein data are presented as time post-transplantation at which hyperglycemia recurred. These findings correlate with the extent to which each autoantigen was able to promote Th2 immunity in newly hyperglycemic animals (see Example 3, below).

[7] = system: female NOD mice; assay: IDDM incidence in NOD mice treated at six weeks (Example 6); type: in vivo; settings: 100 μg ip in IFA at six weeks, boosted once 10 days later; FIGS. 6 and 7
Procedure: IDDM incidence. At specified times, groups of 10 female NOD mice were injected i.p. with 50 μg antigen or control β-galactosidase in 100 μl of 50% IFA. Another control group received 100 μl of 50% IFA alone. Because there may be a requirement for continual antigen presentation, the mice were reinjected every 6 weeks until 40 weeks of age. Urine glucose levels were monitored weekly for diabetes by Tes-tape (Lilly, Indianapolis, Ind.). After we observed abnormal glucose in the urine, blood glucose levels were monitored twice weekly. A recording of two consecutive blood glucose levels of greater than 13 mmol/l was considered as IDDM onset.
Groups of six weeks old female NOD mice were treated with either the control MSA (MSA 560-574) peptide, or a peptide containing a βCAA target determinant (GADp35, GADp34, HSP 277 or insulin B-chain), or a NTTA peptide #2, 4, 6 or 7 (in each case 100 μg ip in IFA)). The mice were boosted once 10 days later. All mouse groups were injected concurrently and housed in the same SPF room. […] An average of 70% of the mice treated with a βCAA target determinant developed IDDM by 40 weeks in age. Two consecutive blood glucose levels of […] was considered disease onset. N=10 for each group.
An average of 40% of the NOD mice treated with different NTTAs developed IDDM by 40 weeks in age. […]

[8] = system: irradiated young NOD mice receiving T cells from diabetic NOD mice; assay: Adoptive transfer of IDDM (Example 5); type: in vivo; settings: cells from treated mice co-transferred with T cells from diabetic NOD mice
Procedure: Adoptive transfer of diabetes. At a specified time, NOD mice were injected i.p. with 100 μg GAD65 (or other specified antigen) or control β-galactosidase in 100 μl of 50% IFA and reinjected at 14 weeks of age. Five weeks later, single-cell suspensions of splenic mononuclear cells were prepared from each group, as well as from unmanipulated diabetic NOD mice. Ten million splenic mononuclear cells from the unmanipulated diabetic mice were mixed with an equal number of splenic mononuclear cells from GAD65 β-galactosidase-treated mice and injected intravenously into 5-week-old female NOD mice that had received 500 rad-γ-irradiation. Another control group received […] splenic mononuclear cells obtained only from unmanipulated diabetic mice.
Splenic T cells from NTTA peptide treated mice were co-transferred with T cells from diabetic NOD mice into irradiated young NOD mice. All of the mice which received cells from mice treated with a control immunogenic mouse serum albumin peptide (MSA 560-574) developed IDDM within 5 weeks. […] Thus, NTTAs are capable of inducing adoptively transferable regulatory responses which can down-regulate pathogenic T cells.

[9] = system: T cell clones from immunized NOD mice; assay: Cytokine secretion of NTTA- and GADp35-reactive T cell clones (Example 9); type: cell-based; settings: ELISPOT and antigen-stimulated culture supernatants
Procedure: NOD mice were immunized with a NTTA peptide or GADp35 in incomplete Freund's adjuvant (IFA). Two weeks later lymph node and splenic T cells were cultured with antigen, IL-2 and IL-4 together with irradiated NOD splenic cells and T cell clones were generated by limiting dilution. A NTTA 7 and a GADp35-reactive clone were characterized by ELISPOT and analysis of antigen-stimulated culture supernatants. Both clones secreted IL-4, and no IFN-γ in response to the corresponding antigen. Thus, these T cell clones appear to be Th2-type.

[10] = 100 islet monocytes mixed with 1 million irradiated splenic T cells
[11] = 1,000 islet monocytes mixed with 1 million irradiated splenic T cells, 10-week old female NOD mice

| Molecule | spontaneous proliferative splenic T cell recall responses [1] | immunogenicity in NOD mice (proliferative T cell response after immunization) [2] | further results |
| --- | --- | --- | --- |
| PLQCSALLVREEGLMQSCNQ (homo sapiens) [GADp27] | ignored | immunogenic | – |
| ELKNFLKDLLEKANKTVDDT (homo sapiens) [Peptide 2] | did not detect | immunogenic | – |
| Insulin B-chain [reference compound] | – | – | Th2 and Th1 responses to the injected autoantigen [3]: both Th2 and Th1 responses; protection from IDDM [4]: highly protective; IFNγ responses, number of T cells [5, 10]: 6; IFNγ responses, number of T cells [5, 11]: 50; syngeneic islet graft survival (recurrence of hyperglycemia) [6]: lacked any protective effect; protection from disease / disease incidence [7]: non-significant trend toward protection |
| LKDLCEKNKQELDIN [peptide 3] | – | did not contain determinants | – |
| MSA 560-574: control immunogenic mouse serum albumin peptide 560-574 (KPKATAEQLKTVMDD) | – | – | time by which all recipient mice developed IDDM [8]: ≤ 5 weeks |
| NHLRATPVRSGSNPQ (homo sapiens) [Peptide 6] | did not detect | immunogenic | – |
| ILKMDHHCPWVNNCV [peptide 5, 15mer from clone 38] | – | did not contain determinants | – |
| EEFMKTWRKYDTDHS [peptide 1] | – | did not contain determinants | – |
| TQRLANFLVRSSNNL (homo sapiens) [Peptide 7] | did not detect | immunogenic | IFN-γ secretion of reactive T cell clone in response to the corresponding antigen [9]: no; IL-4 secretion of reactive T cell clone in response to the corresponding antigen [9]: secreted |
| LIKPDRCHHCSVCDKC (homo sapiens) [Peptide 4] | did not detect | immunogenic | – |
| GKRNAAGDPNRESLDFL [peptide 8, from islet amyloid polypeptide] | – | did not contain determinants | – |
| PEVKEKGMAAVPRLIAFTSE (homo sapiens) [GADp18] | ignored | immunogenic | – |
| B1 | – | – | Th2 and Th1 responses to the injected autoantigen [3]: both Th2 and Th1 responses; protection from IDDM [4]: highly protective; IFNγ responses, number of T cells [5, 10]: 15; IFNγ responses, number of T cells [5, 11]: 123; syngeneic islet graft survival (recurrence of hyperglycemia) [6]: greatly extended syngeneic islet graft survival |
